In publication PMC12118597 (Science Advances, 2025):
Read-outs that look alike come from different tables or passages of the source.

Target: SARS-CoV-2 NSP3 macrodomain (Mac1) (Severe acute respiratory syndrome coronavirus 2, UniProt P0DTD1)
Assay type: binding
Conditions: for 1-BDC: PanDDA background density correction factor; for PanDDA run, overall: Hit / PanDDA run, overall: Modeled / PanDDA run, DMSO background map: 1-BDC / PanDDA run, DMSO background map: Hit / PanDDA run, overall: Modeling comment / PanDDA run, TFA/DMSO background map: 1-BDC / PanDDA run, TFA/DMSO background map: Hit: crystal soak 10 mM; for PanDDA run, overall: Hit / PanDDA run, overall: Modeled / PanDDA run, overall: Modeling comment: P43 crystal form; for Total number of conformations: ligand conformations modeled in the crystal structure; for 2*(1-BDC) (%): occupancy estimate from PanDDA; for Refined ligand occupancy (%): refined crystallographic occupancy
[1] = TRUE = crystal structure with ligand obtained
[2] = site of ligand in X-ray crystal structure
[3] = ligand-bound crystal structure obtained (TRUE)
[4] = site occupied in X-ray crystal structure

| SMILES | Occupancy difference (refined_occupancy - 2*(1-BDC)) | 1-BDC | X-ray crystal structure [1] | PanDDA run, overall: Hit | PanDDA run, overall: Modeled | PanDDA run, DMSO background map: 1-BDC | PanDDA run, DMSO background map: Hit | Total number of conformations | 2*(1-BDC) (%) | Refined ligand occupancy (%) | Binding site [2] | PanDDA run, overall: Modeling comment | PanDDA run, TFA/DMSO background map: 1-BDC | PanDDA run, TFA/DMSO background map: Hit | Binding site (site of Mac1 occupied in the X-ray crystal structure) | X-ray crystal structure [3] | Binding site [4] |
| --- | --- | --- | --- | --- | --- | --- | --- | --- | --- | --- | --- | --- | --- | --- | --- | --- | --- |
| OCC(CC(O)c1ccccc1)Nc1ncnc2[nH]ccc12 (centres unmarked) [AVI-3642] | 0 | 0.17 | TRUE | TRUE | TRUE | 0.17 | TRUE | 1 | 34 | 34 | Adenosine | – | – | – | – | – | – |
| CCCC(CO)Nc1ncnc2[nH]ccc12 (centres unmarked) [AVI-3643] | 0 | 0.16 | TRUE | TRUE | TRUE | 0.16 | TRUE | 1 | 32 | 32 | Adenosine | – | – | – | – | – | – |
| C#CCC(CO)Nc1ncnc2[nH]ccc12 (centres unmarked) [AVI-3644] | 0 | 0.18 | TRUE | TRUE | TRUE | 0.18 | TRUE | 1 | 36 | 36 | Adenosine | – | – | – | – | – | – |
| O=C(O)C(F)(F)F.OCC(Nc1ncnc2[nH]ccc12)C1CCCO1 (centres unmarked) [AVI-3645] | – | – | – | TRUE | – | 0.22 | TRUE | – | – | – | – | Weak density, not modeled | 0.12 | TRUE | – | – | – |
| OC1CCCN(c2ncnc3[nH]ccc23)C1 (centres unmarked) [AVI-3646] | 0 | 0.22 | TRUE | TRUE | TRUE | 0.22 | TRUE | 1 | 44 | 44 | – | – | – | – | Adenosine | – | – |
| CC(C)(C)CC(CO)Nc1ncnc2[nH]ccc12 (centres unmarked) [AVI-3648] | 0 | 0.13 | TRUE | TRUE | TRUE | 0.13 | TRUE | 1 | 26 | 26 | Adenosine | – | – | – | – | – | – |
| OCC(Nc1ncnc2[nH]ccc12)C1CCCC1 (centres unmarked) [AVI-3649] | 0 | 0.16 | TRUE | TRUE | TRUE | 0.16 | TRUE | 1 | 32 | 32 | Adenosine | – | – | – | – | – | – |
| OCC(Cc1c[nH]c2ccccc12)Nc1ncnc2[nH]ccc12 (centres unmarked) [AVI-3650] | 0 | 0.15 | TRUE | TRUE | TRUE | 0.15 | TRUE | 2 | 30 | 30 | Adenosine | – | – | – | – | – | – |
| OC(c1ccccc1)C1CCCN1c1ncnc2[nH]ccc12 (centres unmarked) [AVI-3652] | 0 | 0.22 | – | TRUE | TRUE | 0.22 | TRUE | 1 | 44 | 44 | – | – | – | – | – | TRUE | Adenosine |
| O=C(O)C(F)(F)F.OC[C@@H](CCc1ccccc1)Nc1ncnc2[nH]ccc12 [AVI-3654] | – | – | – | TRUE | – | 0.14 | TRUE | – | – | – | – | Weak density for phenyl, not modeled | 0.07 | TRUE | – | – | – |
| CC1CCN(c2ncnc3[nH]ccc23)C1CO (centres unmarked) [AVI-3655] | 0 | 0.21 | – | TRUE | TRUE | 0.21 | TRUE | 1 | 42 | 42 | – | – | – | – | – | TRUE | Adenosine |
| CO[C@@H]1C[C@H](CO)N(c2ncnc3[nH]ccc23)C1 [AVI-3656] | 0 | 0.26 | – | TRUE | TRUE | 0.26 | TRUE | 1 | 52 | 52 | – | – | – | – | – | TRUE | Adenosine |
